The test system of one assay is Sigma 1. The experiment in a line: PDSP primary binding Sigma 1. As to conditions: primary binding, 10,000 nM; last figure of the line = mean of the 4 before it. On the procedure:
(§1) To determine if any off-target receptor-binding effects are present, all the novel ligands were sent to the National Institute of Mental Health (NIMH), Psychoactive Drug Screening Program (PDSP). The ligands were screened over a panel of 47 receptors, ion channels, and transporters to determine any other possible interactions with […]. The hERG-binding was also determined. […] No binding of the test compounds to calcium channels was observed. […] It is necessary to screen the compounds for hERG-binding during the early process of drug discovery. The unintentional binding of many drugs to hERG can cause blockade of hERG K+ channels in the heart, which can cause many side effects including cardiac arrhythmias and sudden death. […] All of the α5 imidazodiazepines were tested for hERG-binding.
(§2) The NIMH PDSP assay protocol book [https://kidbdev.med.unc.edu/databases/PDSP%20Protocols%20II%202013-03-28.pdf accessed on 23 April 2023]. describes the protocols for primary and secondary radio-ligand binding assays. These assays were carried out in a final volume of 125 µL per well in the appropriate binding buffer.
(§3) The binding of a ligand to a receptor, ion channel, or transporter was determined in the […] of 10 µM of the appropriate reference compound. […] Plates were incubated in the dark for 90 min at rt, and the reactions were stopped by vacuum filtration onto 0.3% polyethyleneimine (PEI) soaked 96-well filter mats using a 96-well Filtermateharvester. This was followed by three washes with cold PBS buffer. Radioactivity was then counted on a Microbeta counter. Nonlinear regression was used to analyze the data with N = 6 replicates.

Another assay concerns the target T1, H2 (Homo sapiens, UniProt P25021).
T1 construct: purchased NIMH Psychoactive Drug Screening Program (PDSP)
The experiment in a line: PDSP primary binding H2. Conditions: primary binding, 10,000 nM; last figure of the line = mean of the 4 before it; read-out: H2, PDSP raw data, mean. On the procedure: as §1, §2, §3

The target of another assay is T2, Alpha4Beta4 (Rattus norvegicus, UniProt P09483+P12392).
T2 construct: purchased NIMH Psychoactive Drug Screening Program (PDSP)
T2 sequence (P09483 31-630): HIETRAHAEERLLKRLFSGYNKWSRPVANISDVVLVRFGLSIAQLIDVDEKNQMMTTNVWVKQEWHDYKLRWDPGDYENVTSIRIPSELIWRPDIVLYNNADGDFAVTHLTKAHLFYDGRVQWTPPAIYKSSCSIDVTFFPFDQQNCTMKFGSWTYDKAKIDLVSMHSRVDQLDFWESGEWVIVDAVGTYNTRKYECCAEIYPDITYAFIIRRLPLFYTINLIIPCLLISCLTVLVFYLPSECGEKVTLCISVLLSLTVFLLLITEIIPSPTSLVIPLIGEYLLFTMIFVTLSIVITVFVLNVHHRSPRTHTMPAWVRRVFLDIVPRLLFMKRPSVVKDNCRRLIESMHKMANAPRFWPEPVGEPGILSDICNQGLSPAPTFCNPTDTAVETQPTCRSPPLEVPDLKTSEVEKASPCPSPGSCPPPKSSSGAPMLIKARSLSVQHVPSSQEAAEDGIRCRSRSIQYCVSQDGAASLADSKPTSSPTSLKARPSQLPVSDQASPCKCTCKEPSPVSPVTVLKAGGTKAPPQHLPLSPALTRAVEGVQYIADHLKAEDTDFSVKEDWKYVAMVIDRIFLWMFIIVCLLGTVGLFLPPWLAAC
T2 sequence (P12392 21-495): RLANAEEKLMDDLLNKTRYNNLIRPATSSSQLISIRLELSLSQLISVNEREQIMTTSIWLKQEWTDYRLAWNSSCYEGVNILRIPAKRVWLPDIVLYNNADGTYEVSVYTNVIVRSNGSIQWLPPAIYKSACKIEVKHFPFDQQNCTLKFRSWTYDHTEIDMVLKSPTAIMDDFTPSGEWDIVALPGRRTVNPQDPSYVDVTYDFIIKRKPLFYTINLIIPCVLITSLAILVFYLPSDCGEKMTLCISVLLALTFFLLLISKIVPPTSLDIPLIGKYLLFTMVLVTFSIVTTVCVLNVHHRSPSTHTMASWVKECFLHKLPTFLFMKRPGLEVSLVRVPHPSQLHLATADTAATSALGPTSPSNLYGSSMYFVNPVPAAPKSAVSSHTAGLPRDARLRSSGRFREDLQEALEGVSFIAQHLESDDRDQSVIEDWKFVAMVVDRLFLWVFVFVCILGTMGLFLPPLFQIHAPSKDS
The experiment in a line: PDSP primary binding Alpha4Beta4. Conditions: primary binding, 10,000 nM; last figure of the line = mean of the 4 before it; read-out: Alpha4Beta4, PDSP raw data, mean. How it is done:
as §1, §2, §3

The next assay has as its target T3, NTS1 (Homo sapiens, UniProt P30989).
T3 construct: purchased NIMH Psychoactive Drug Screening Program (PDSP)
The experiment in a line: PDSP primary binding NTS1. Conditions: primary binding, 10,000 nM; last figure of the line = mean of the 4 before it; read-out: NTS1, PDSP raw data, mean. On the procedure:
as §1, §2, §3

In a further assay the target is T4, M4 D (Homo sapiens, UniProt P08173, A203G/Y113C).
T4 construct: purchased NIMH Psychoactive Drug Screening Program (PDSP)
T4 sequence (P08173 1-479 Y113C/A203G): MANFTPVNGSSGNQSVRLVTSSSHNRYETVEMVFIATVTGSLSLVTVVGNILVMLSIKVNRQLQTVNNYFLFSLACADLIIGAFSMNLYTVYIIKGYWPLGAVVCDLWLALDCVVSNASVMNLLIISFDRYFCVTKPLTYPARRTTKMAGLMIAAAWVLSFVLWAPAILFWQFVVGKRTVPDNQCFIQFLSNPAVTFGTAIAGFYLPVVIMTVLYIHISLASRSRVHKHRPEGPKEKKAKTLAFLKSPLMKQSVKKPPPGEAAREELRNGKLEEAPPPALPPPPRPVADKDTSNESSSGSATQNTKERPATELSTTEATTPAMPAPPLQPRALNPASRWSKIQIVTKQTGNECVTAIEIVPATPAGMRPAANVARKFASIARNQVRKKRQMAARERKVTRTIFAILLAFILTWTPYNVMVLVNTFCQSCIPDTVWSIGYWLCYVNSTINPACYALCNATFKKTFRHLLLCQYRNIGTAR
The experiment in a line: PDSP primary binding M4 D. Conditions: primary binding, 10,000 nM; last figure of the line = mean of the 4 before it; read-out: M4 D, PDSP raw data, mean. How it is done: as §1, §2, §3

A further assay concerns Ca channel human. The experiment in a line: PDSP primary binding Ca channel. Conditions: primary binding, 10,000 nM; last figure of the line = mean of the 4 before it. On the procedure:
as §1, §2, §3

For a further assay, the target named is T5, M5 (Homo sapiens, UniProt P08912).
T5 construct: purchased NIMH Psychoactive Drug Screening Program (PDSP)
T5 sequence (P08912 1-532): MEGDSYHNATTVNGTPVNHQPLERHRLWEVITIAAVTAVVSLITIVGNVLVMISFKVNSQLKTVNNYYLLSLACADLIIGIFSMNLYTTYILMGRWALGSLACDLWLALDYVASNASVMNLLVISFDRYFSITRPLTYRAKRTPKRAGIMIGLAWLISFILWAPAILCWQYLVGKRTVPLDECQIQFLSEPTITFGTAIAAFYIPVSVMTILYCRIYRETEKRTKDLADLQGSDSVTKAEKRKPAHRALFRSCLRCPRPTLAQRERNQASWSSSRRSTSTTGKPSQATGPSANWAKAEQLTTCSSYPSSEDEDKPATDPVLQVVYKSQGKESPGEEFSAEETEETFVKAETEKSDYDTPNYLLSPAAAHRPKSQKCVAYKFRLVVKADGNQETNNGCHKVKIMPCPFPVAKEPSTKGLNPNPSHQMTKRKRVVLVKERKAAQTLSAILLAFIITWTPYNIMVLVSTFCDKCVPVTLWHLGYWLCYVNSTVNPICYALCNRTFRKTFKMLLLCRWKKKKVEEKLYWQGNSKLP
The experiment in a line: PDSP primary binding M5. As to conditions: primary binding, 10,000 nM; last figure of the line = mean of the 4 before it; read-out: M5, PDSP raw data, mean. How it is done:
as §1, §2, §3

In another assay the target is T6, V1A (Homo sapiens, UniProt P37288).
T6 construct: purchased NIMH Psychoactive Drug Screening Program (PDSP)
T6 sequence (P37288 whole entry): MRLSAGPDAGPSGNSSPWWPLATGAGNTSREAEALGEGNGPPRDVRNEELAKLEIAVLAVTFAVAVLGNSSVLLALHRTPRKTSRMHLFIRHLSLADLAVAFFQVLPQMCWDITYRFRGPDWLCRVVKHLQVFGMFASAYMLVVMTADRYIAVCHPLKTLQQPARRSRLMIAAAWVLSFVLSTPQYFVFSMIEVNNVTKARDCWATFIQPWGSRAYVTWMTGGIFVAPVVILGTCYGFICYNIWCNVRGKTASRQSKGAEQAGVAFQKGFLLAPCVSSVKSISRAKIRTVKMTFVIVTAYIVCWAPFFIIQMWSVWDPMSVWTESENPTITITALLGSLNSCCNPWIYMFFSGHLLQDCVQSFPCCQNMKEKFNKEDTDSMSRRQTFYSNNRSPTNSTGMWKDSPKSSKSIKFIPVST
The experiment in a line: PDSP primary binding V1A. As to conditions: primary binding, 10,000 nM; last figure of the line = mean of the 4 before it; read-out: V1A, PDSP raw data, mean. How it is done: as §1, §2, §3

The target in a further assay is T7, 5-HT6 (Homo sapiens, UniProt P50406).
T7 construct: purchased NIMH Psychoactive Drug Screening Program (PDSP)
T7 sequence (P50406 whole entry): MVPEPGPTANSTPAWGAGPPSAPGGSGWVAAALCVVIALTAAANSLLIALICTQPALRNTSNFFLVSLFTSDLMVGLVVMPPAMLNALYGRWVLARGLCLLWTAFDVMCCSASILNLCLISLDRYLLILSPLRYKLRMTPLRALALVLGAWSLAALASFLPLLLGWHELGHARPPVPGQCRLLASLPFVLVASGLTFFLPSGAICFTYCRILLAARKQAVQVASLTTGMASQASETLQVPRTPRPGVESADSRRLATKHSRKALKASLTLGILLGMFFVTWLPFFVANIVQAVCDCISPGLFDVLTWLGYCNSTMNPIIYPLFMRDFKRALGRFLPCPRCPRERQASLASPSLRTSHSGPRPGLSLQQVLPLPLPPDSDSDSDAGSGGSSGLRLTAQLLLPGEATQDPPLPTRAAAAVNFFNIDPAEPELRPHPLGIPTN
The experiment in a line: PDSP primary binding 5-HT6. As to conditions: 1.5 h; primary binding, 10,000 nM; last figure of the line = mean of the 4 before it; read-out: 5-HT6, PDSP raw data, mean. How it is done:
as §1, §2, §3

T1 sequence (P25021 whole entry): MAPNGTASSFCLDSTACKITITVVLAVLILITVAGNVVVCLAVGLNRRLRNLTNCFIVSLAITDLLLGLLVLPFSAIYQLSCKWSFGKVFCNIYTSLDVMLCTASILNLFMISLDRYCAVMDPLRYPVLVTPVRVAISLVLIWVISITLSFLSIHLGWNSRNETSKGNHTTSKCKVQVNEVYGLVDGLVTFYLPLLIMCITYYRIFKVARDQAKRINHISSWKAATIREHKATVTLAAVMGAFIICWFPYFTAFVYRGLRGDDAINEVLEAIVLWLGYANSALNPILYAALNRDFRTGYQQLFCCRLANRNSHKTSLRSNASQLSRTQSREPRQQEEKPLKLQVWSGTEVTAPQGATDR
T3 sequence (P30989 whole entry): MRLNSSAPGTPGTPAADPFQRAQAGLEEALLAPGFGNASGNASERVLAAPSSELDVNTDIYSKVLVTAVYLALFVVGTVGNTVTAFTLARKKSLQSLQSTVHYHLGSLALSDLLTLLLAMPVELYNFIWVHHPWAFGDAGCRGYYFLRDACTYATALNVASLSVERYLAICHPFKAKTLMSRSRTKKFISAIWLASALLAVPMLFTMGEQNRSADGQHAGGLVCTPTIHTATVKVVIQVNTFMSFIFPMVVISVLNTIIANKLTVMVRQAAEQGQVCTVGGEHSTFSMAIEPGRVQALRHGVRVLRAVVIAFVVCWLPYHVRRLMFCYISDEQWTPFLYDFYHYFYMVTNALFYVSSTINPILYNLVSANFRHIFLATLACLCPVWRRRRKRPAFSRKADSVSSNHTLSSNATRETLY

On to `C[C@H]1N=C(c2ccccc2F)c2cc(-c3ccccc3)ccc2-n2cnc(C(=O)N(C)C)c21` [Compound 5, (R)-6-(2′-Fluorophenyl)-N,N,4-trimethyl-8-phenyl-4H-benzo[f]imidazo[1,5-a][1,4]diazepine-3-carboxamide], for which the “Sigma 1, PDSP raw data, mean” value with Sigma 1 was 46.91%. For the same compound, the inhibition at 10 µM is -1.42% at H2; 1.99% on Alpha4Beta4; -16.7% at NTS1; 27.2% at M4 D; -0.76% on M5; 15.6% at V1A. Also, the inhibition at 10 µM on 5-HT6 amounted to 24.6%. In addition, the “Ca channel human, PDSP raw data, mean” value with Ca channel human worked out at 39.05%.
In the case of `C#Cc1ccc2c(c1)C(c1ccccc1Cl)=N[C@H](C)c1c(C(=O)NC)ncn1-2` [Compound 21, (R)-6-(2′-Chlorophenyl)-8-ethynyl-N,4-dimethyl-4H-benzo[f]imidazo[1,5-a][1,4]diazepine-3-carboxamide], in the assay with Sigma 1, the “Sigma 1, PDSP raw data, mean” value is recorded as 44.58%. For the same compound, the inhibition at 10 µM at H2 was -2.07%; at Alpha4Beta4, 14.4%; on NTS1, -25.2%; at M4 D, 1.13%; on M5, -8.03%; at V1A it was 35.1%. At 5-HT6, the inhibition at 10 µM was -8.24%. The “Ca channel human, PDSP raw data, mean” value in the assay with Ca channel human is listed as 9.85%.
As to `C#Cc1ccc2c(c1)C(c1ccccn1)=N[C@@H](C)c1c(C(=O)NC)ncn1-2` [Compound 23, (S)-8-Ethynyl-N,4-dimethyl-6-(pyridin-2′-yl)-4H-benzo[f]imidazo[1,5-a][1,4]diazepine-3-carboxamide], in the assay on Sigma 1, the “Sigma 1, PDSP raw data, mean” value is 43.18%. Further, the inhibition at 10 µM at H2 is -23.3%; at Alpha4Beta4, 4.42%; on NTS1, -5.89%; on M4 D it was 50.5%; at M5 it was -13.6%; on V1A, 25.4%. Besides, the inhibition at 10 µM at 5-HT6 is 18.1%. Moreover, the “Ca channel human, PDSP raw data, mean” value in the assay with Ca channel human came to 14.91%.
`C#Cc1ccc2c(c1)C(c1ccccc1Cl)=N[C@H](C)c1c(C(=O)N(C)CC)ncn1-2` [Compound 29]: in the assay on Sigma 1, the “Sigma 1, PDSP raw data, mean” value is listed as 35.65%. Moreover, the inhibition at 10 µM is -0.28% at H2; -3.3% on Alpha4Beta4; -19.5% at NTS1; 46.2% at M4 D; -17.5% on M5; 8.93% at V1A. The inhibition at 10 µM on 5-HT6 came out at 14.9%. Further, in the assay on Ca channel human, the “Ca channel human, PDSP raw data, mean” value is 22.67%.
On to `C#Cc1ccc2c(c1)C(c1ccccn1)=N[C@@H](C)c1c(C(=O)N(C)C)ncn1-2` [Compound 31, (S)-8-Ethynyl-N,N,4-trimethyl-6-(pyridin-2′-yl)-4H-benzo[f]imidazo[1,5-a][1,4]diazepine-3-carboxamide], for which the “Sigma 1, PDSP raw data, mean” value with Sigma 1 is reported as 27.79%. Moreover, the inhibition at 10 µM is -12.1% at H2; 6.85% at Alpha4Beta4; 0.28% on NTS1; 56.8% on M4 D; -11.8% on M5; 3.6% at V1A. In addition, the inhibition at 10 µM at 5-HT6 was 18.1%. In the assay on Ca channel human, the “Ca channel human, PDSP raw data, mean” value worked out at 4.19%.
For `C#Cc1ccc2c(c1)C(c1ccccc1F)=N[C@H](C)c1c(C(=S)N(C)C)ncn1-2` [Compound 33, (R)-8-Ethynyl-6-(2′-fluorophenyl)-N,N,4-trimethyl-4H-benzo[f]imidazo[1,5-a][1,4]diazepine-3-carbothioamide], the “Sigma 1, PDSP raw data, mean” value in the assay with Sigma 1 is listed as 46.91%. Further, the inhibition at 10 µM at H2 was -1.42%; at Alpha4Beta4 it was 1.99%; at NTS1, -16.7%; at M4 D it was 27.2%; at M5, -0.76%; on V1A, 15.6%. Besides, the inhibition at 10 µM at 5-HT6 was 24.6%. Moreover, the “Ca channel human, PDSP raw data, mean” value with Ca channel human is 39.05%.
Take `CCc1noc(-c2ncn3c2[C@@H](C)N=C(c2ccccc2F)c2cc(-c4ccccc4)ccc2-3)n1` [Compound 35, (R)-3-Ethyl-5-(6-(2′-fluorophenyl)-4-methyl-8-phenyl-4H-benzo[f]imidazo[1,5-a][1,4]diazepin-3-yl)-1,2,4-oxadiazole]: in the assay on Sigma 1, the “Sigma 1, PDSP raw data, mean” value is reported as 45.25%. For the same compound, the inhibition at 10 µM at H2 was -10.1%; on Alpha4Beta4, 17.9%; on NTS1 it was -32.6%; on M4 D it was 15.7%; on M5, -7.39%; at V1A, 3.9%. Moreover, the inhibition at 10 µM at 5-HT6 was found to be 10.3%. The “Ca channel human, PDSP raw data, mean” value in the assay with Ca channel human is 61.85%.
Regarding `CCc1noc(-c2ncn3c2[C@@H](C)N=C(c2ccccc2F)c2cc(Cl)ccc2-3)n1` [Compound 36, (R)-5-(8-Chloro-6-(2′-fluorophenyl)-4-methyl-4H-benzo[f]imidazo[1,5-a][1,4]diazepin-3-yl)-3-ethyl-1,2,4-oxadiazole], the “Sigma 1, PDSP raw data, mean” value in the assay on Sigma 1 is recorded as 46%. Moreover, the inhibition at 10 µM at H2 was 5.61%; at Alpha4Beta4, 10.2%; on NTS1, -16.9%; at M4 D it was 26.6%; on M5, -10.7%; on V1A, 27.6%. Moreover, at 5-HT6, the inhibition at 10 µM was determined as 10.8%. Moreover, in the assay with Ca channel human, the “Ca channel human, PDSP raw data, mean” value worked out at 16.74%.
For `CC(C)c1noc(-c2ncn3c2[C@@H](C)N=C(c2ccccc2F)c2cc(Cl)ccc2-3)n1` [Compound 37, (R)-5-(8-Chloro-6-(2′-fluorophenyl)-4-methyl-4H-benzo[f]imidazo[1,5-a][1,4]diazepin-3-yl)-3-isopropyl-1,2,4-oxadiazole], the “Sigma 1, PDSP raw data, mean” value in the assay on Sigma 1 is 5.67%. For the same compound, the inhibition at 10 µM was 1.66% at H2; 12.9% on Alpha4Beta4; -16.3% on NTS1; -19.7% on M4 D; -4.88% at M5; -10.1% on V1A. Besides, the inhibition at 10 µM at 5-HT6 is -1.65%. Also, the “Ca channel human, PDSP raw data, mean” value in the assay on Ca channel human turned out to be 7.04%.

The values are drawn from article PMC10303271, “Synthesis and Receptor Binding Studies of α5 GABAAR Selective Novel Imidazodiazepines Targeted for Psychiatric and Cognitive Disorders” (Molecules, 2023).
